How the values were obtained:
Format in all cases: cell-based
[1] = tested on: SN12C; assay: in vitro cytotoxicity evaluation, Renal Cancer; settings: Homo sapiens, 48 h, two days, sulforhodamine B
Procedure: (§1) These assays were carried out at the Developmental Therapeutics Program, Division of Cancer Treatment, National Cancer Institute (Bethesda, Md., USA). The method consists of incubating varying concentrations of the drug with an inoculum of cells for two days.
(§2) It should be noted that the first two parameters (GI50 and TGI) relate to antiproliferation effects while the third one (LC50) indicates true cytotoxicity.

[2] = tested on: TK-10; assay: in vitro cytotoxicity evaluation, Renal Cancer; settings: Homo sapiens, 48 h, TK-10, two days, sulforhodamine B
Procedure: as §1, §2

[3] = tested on: ACHN; assay: in vitro cytotoxicity evaluation, Renal Cancer; settings: Homo sapiens, 48 h, two days, sulforhodamine B
Procedure: as §1, §2

[4] = tested on: RXF-393; assay: in vitro cytotoxicity evaluation, Renal Cancer; settings: Homo sapiens, 48 h, RXF-393, two days, sulforhodamine B
Procedure: as §1, §2

[5] = tested on: CAKI-1; assay: in vitro cytotoxicity evaluation, Renal Cancer; settings: Homo sapiens, 48 h, CAKI-1, two days, sulforhodamine B
Procedure: as §1, §2

[6] = tested on: UO-31; assay: in vitro cytotoxicity evaluation, Renal Cancer; settings: Homo sapiens, 48 h, UO-31, two days, sulforhodamine B
Procedure: as §1, §2

[7] = tested on: F498; assay: in vitro cytotoxicity evaluation, CNS Cancer; settings: Homo sapiens, 48 h, F498, two days, sulforhodamine B
Procedure: as §1, §2

[8] = tested on: SF-539; assay: in vitro cytotoxicity evaluation, CNS Cancer; settings: Homo sapiens, 48 h, SF-539, two days, sulforhodamine B
Procedure: as §1, §2

[9] = tested on: SNB-75; assay: in vitro cytotoxicity evaluation, CNS Cancer; settings: Homo sapiens, 48 h, SNB-75, two days, sulforhodamine B
Procedure: as §1, §2

[10] = tested on: U251; assay: in vitro cytotoxicity evaluation, CNS Cancer; settings: Homo sapiens, U-251, 48 h, U251, two days, sulforhodamine B
Procedure: as §1, §2

[11] = tested on: SNB-19; assay: in vitro cytotoxicity evaluation, CNS Cancer; settings: Homo sapiens, 48 h, SNB-19, two days, sulforhodamine B
Procedure: as §1, §2

[12] = tested on: SF-268; assay: in vitro cytotoxicity evaluation, CNS Cancer; settings: Homo sapiens, 48 h, SF-268, two days, sulforhodamine B
Procedure: as §1, §2

[13] = tested on: SNB-78; assay: in vitro cytotoxicity evaluation, CNS Cancer; settings: Homo sapiens, 48 h, SNB-78, two days, sulforhodamine B
Procedure: as §1, §2

[14] = tested on: SF-295; assay: in vitro cytotoxicity evaluation, CNS Cancer; settings: Homo sapiens, 48 h, SF-295, two days, sulforhodamine B
Procedure: as §1, §2

[15] = tested on: HI-60TB; assay: in vitro cytotoxicity evaluation, Leukemia; settings: Homo sapiens, 48 h, two days, sulforhodamine B
[16] = read-out: LOG10 G150 (GI50) (converted)
[17] = read-out: Log10 LC50 (converted)
[18] = read-out: Log10 TGI (converted)

How did the GI50 [1, 16] turn out when `COc1c2c(c(OC)c3c(=O)c4ccccc4sc13)CS(=O)(=O)[C@@H]2O[C@H]1C[C@H](N)[C@H](O)[C@H](C)O1` [BCH-255, (1S ) 1-daunosamine-4-11-dimethoxy-5-oxo-5-H-1,3-dihydrothioxantheno [2,3-c] thiophene-2,2-dioxide] was run?
Its GI50 is 18.2 µM.

What about the CC50 [1, 17] of the same molecule?
The CC50 was 72.4 µM.

What about the IC (total growth inhibition (TGI)) [1, 18] of the same molecule?
Its IC (total growth inhibition (TGI)) is 36.3 µM.

And the GI50 [2, 16]?
Its GI50 is 25.7 µM.

And the CC50 [2, 17]?
Its CC50 is 77.6 µM.

And the IC (total growth inhibition (TGI)) [2, 18]?
Its IC (total growth inhibition (TGI)) is 44.7 µM.

And the GI50 [3, 16]?
Its GI50 is 17.4 µM.

What about the CC50 [3, 17] of the same molecule?
Its CC50 is 61.7 µM.

And the IC (total growth inhibition (TGI)) [3, 18]?
Its IC (total growth inhibition (TGI)) is 32.4 µM.

And the GI50 [4, 16]?
Its GI50 is 17 µM.

What about the CC50 [4, 17] of the same molecule?
Its CC50 is 72.4 µM.

And the IC (total growth inhibition (TGI)) [4, 18]?
The IC (total growth inhibition (TGI)) was 35.5 µM.

And the GI50 [5, 16]?
Its GI50 is 19.5 µM.

What about the CC50 [5, 17] of the same molecule?
Its CC50 is 74.1 µM.

What about the IC (total growth inhibition (TGI)) [5, 18] of the same molecule?
Its IC (total growth inhibition (TGI)) is 38 µM.

What about the GI50 [6, 16] of the same molecule?
Its GI50 is 19.5 µM.

And the CC50 [6, 17]?
The CC50 was 91.2 µM.

What about the IC (total growth inhibition (TGI)) [6, 18] of the same molecule?
Its IC (total growth inhibition (TGI)) is 42.7 µM.

And the GI50 [7, 16]?
The GI50 was 16.6 µM.

What about the CC50 [7, 17] of the same molecule?
The CC50 was 58.9 µM.

What about the IC (total growth inhibition (TGI)) [7, 18] of the same molecule?
Its IC (total growth inhibition (TGI)) is 31.6 µM.

What about the GI50 [8, 16] of the same molecule?
The GI50 was 17.4 µM.

What about the CC50 [8, 17] of the same molecule?
The CC50 was 57.5 µM.

What about the IC (total growth inhibition (TGI)) [8, 18] of the same molecule?
The IC (total growth inhibition (TGI)) was 31.6 µM.

What about the GI50 [9, 16] of the same molecule?
The GI50 was 15.8 µM.

And the CC50 [9, 17]?
Its CC50 is 57.5 µM.

And the IC (total growth inhibition (TGI)) [9, 18]?
The IC (total growth inhibition (TGI)) was 30.2 µM.

What about the GI50 [10, 16] of the same molecule?
Its GI50 is 17.4 µM.

What about the CC50 [10, 17] of the same molecule?
Its CC50 is 56.2 µM.

And the IC (total growth inhibition (TGI)) [10, 18]?
The IC (total growth inhibition (TGI)) was 31.6 µM.

What about the GI50 [11, 16] of the same molecule?
Its GI50 is 30.9 µM.

And the CC50 [11, 17]?
The CC50 was > 100 µM.

And the IC (total growth inhibition (TGI)) ([11]; read-out: Log10 TGI)?
The IC (total growth inhibition (TGI)) was > 100 µM.

What about the GI50 [12, 16] of the same molecule?
The GI50 was 20.9 µM.

And the CC50 [12, 17]?
Its CC50 is > 100 µM.

What about the IC (total growth inhibition (TGI)) [12, 18] of the same molecule?
The IC (total growth inhibition (TGI)) was 52.5 µM.

And the GI50 [13, 16]?
The GI50 was 20.4 µM.

What about the CC50 [13, 17] of the same molecule?
Its CC50 is 91.2 µM.

What about the IC (total growth inhibition (TGI)) [13, 18] of the same molecule?
The IC (total growth inhibition (TGI)) was 42.7 µM.

And the GI50 [14, 16]?
The GI50 was 16.2 µM.

What about the CC50 [14, 17] of the same molecule?
Its CC50 is 63.1 µM.

And the IC (total growth inhibition (TGI)) [14, 18]?
Its IC (total growth inhibition (TGI)) is 32.4 µM.

What about the GI50 [15, 16] of the same molecule?
Its GI50 is 15.8 µM.

What about the CC50 [15, 17] of the same molecule?
Its CC50 is 69.2 µM.

What about the IC (total growth inhibition (TGI)) [15, 18] of the same molecule?
Its IC (total growth inhibition (TGI)) is 33.1 µM.

From US5348946A, “Heteroanthracycline antitumor analogs” (Biochem Immunosystems, Inc., priority 1991, dated 1994)
